Test results taken from US20250382631A1, “PROTAC-CID SYSTEMS FOR USE IN MULTIPLEX GENE REGULATION” (William Marsh Rice University, priority 2022, published 2025).
Read-outs that look alike come from different tables or passages of the source. Each block holds one molecule with its values, some of them ahead of it.

Columns and labels:
[1] = test system: isABE system (FRB / FKBP3 fused split ABE8e), EYFP reporter in HEK293T cells; assay: isABE split adenine base editor, EYFP stop-codon reporter dose response; type: cell-based; details: Homo sapiens, HEK-293T; different doses of Rapamycin, FIG. 5J
Text: For rapid exploration of inducible ABE variants, the inventors first sought to develop a rapid fluorescence-based reporter system to quantify the ABE efficiency as reported before. The inventors selected target region in eyfp gene with NGG PAM where a CAG codon within the editing window was mutated to TAG stop codon. ABEs convert A to G or T to C, thus allowing the conversion of stop codon to CAG following gRNA binding to untemplated strand. Additionally, there is no other bystander A in the editing window that would cause complex editing to affect the fluorescence expression. The inventors observed a high restoration of the EYFP fluorescence when transfecting HEK293T cells with plasmids encoding the ABE8e fused SpCas9 and guide RNA (FIGS. 5A and 5B). Next, the target range of base editors was restricted by the PAM where the prototypical SpCas9 recognizing target sites with NGG PAM (where N is A, C, G or T). A variant named SpG was identified with an expanded set of NGN PAM. […]
To develop a split adenosine base editor system, the inventors identified two potential split regions based on the crystal structure of ABE8e base editor in complex with guide RNA and target DNA. […] In addition, moderate levels of eYFP signal were detected in both sites. […]

[2] = PROTAC-CID inducible EYFP gene activation, flow cytometry; type: cell-based, human; details: Homo sapiens, HEK-293T, FIG. 13A
Protocol: (§1) Fluorescence assay using flow cytometry analysis. Cells were treated with 0.05% Trpsin EDTA (Thermo Fisher Scientific no. 25300054) or TrypLE (Thermo Fisher Scientific no. 12605028) after transfection and centrifuged at 3000 g for 5 min. Supernatant was removed and the cell pellet was resuspended with 200 μL phosphate buffered saline (PBS) without calcium and magnesium (Thermo Fisher Scientific no. 10010023). Cells were transferred into 12×75 mm flow tubes (Global Scientific no. 110410). Cells were analyzed by MA900 flow cytometry (SONY). 405 nm laser (FL6 filter) was used for testing the BFP channel. 488 nm (FL1 filter) was used for testing the EYFP and GFP channel. Automated alignment using Automatic Setup Beads kit (SONY no. LE-B3001) is performed before running samples. In FIGS. 3A, 3B, and 17, experiments were performed under 2% FSC, 17% BSC, 24% FL1. In FIG. 18, experiments were performed under 2% FSC, 17% BSC, 27% FL1. All the other experiments were performed under 2% FSC, 17% BSC, 24% FL1 and 27% FL6. Flow cytometry data was processed and analyzed by FlowJo 10. Events were first gated with forward scatter-Area (FSC-A) and side scatter-Area (SSC-A) to select viable cells and remove the debris and dead cells. Cells were further gated with FSC-A and FSC-Height (FSC-H) for selecting single cells. The mean intensity of the reporter fluorescent protein (BFP and EYFP) in viable and single cell populations were calculated by FlowJo 10 as the mean of FL6-A and FL1-A. When calculating the fold change of relative fluorescence units (RFU), the relative fluorescence units of EYFP was calculated by dividing the mean of fluorescence intensity of EYFP with the mean of BFP fluorescence intensity for normalization as the following formula: […]
(§2) Next, the mean of the normalized relative fluorescence units of induced group were divided by the value of control group for calculating the fold change as the following formula: […]
(§3) Transfection and microscopy. HEK293T cells (American Type Culture Collection, no. CRL-3216) were cultured with high-glucose Dulbecco's modified Eagle's medium (DMEM) (Thermo Fisher Scientific no. 10569044) with 10% fetal bovine serum (FBS) (Thermo Fisher Scientific no. 10437028) and 1×penicillin-streptomycin (Thermo Fisher Scientific no. 15140122) at 37° C. with 5% CO2. Except for the data in FIGS. 3C, 3E, and 3H, cells were plated into 96 well plate (Corning no. 3598) and transfected by Polyethyleneimine Max (PEI Max) (Polysciences no. 24765-1). 1.5 μL PEI Max (1 mg/mL, pH=7.1) and 100 μl DMEM were mixed with plasmids to be slowly dropped into the cell medium after 30 mins of incubation. Medium was changed 12 hours post-transfection. The inductive small molecules, including Rapamycin (STEM CELL technologies no. 73362), dTAG-13 (TOCRIS no. 6605/5), dTAG^V-1 (TOCRIS no. 6744-5), dBRD9 (TOCRIS no. 6606/5), dTRIM24 (TOCRIS no. 6607/5), MZ1 (TOCRIS no. 6154/5), AT1 (TOCRIS no. 6356/5), TL13-12 (TOCRIS no. 6744/5), TL13-112 (TOCRIS no. 6745/5), dTAG-7 (TOCRIS no. 69125), ZXH3-26 (TOCRIS no. 6713/5) and ABA (GoldBio no. A-050-100), dissolved in Dimethyl sulfoxide (DMSO) (Sigma, no. D8418) were added. For the microscopy observation, the images were taken by Microscopy EVOS (Life Technologies) and processed by ImageJ (Schneider et al., 2012). If not otherwise noted, 60 ng of each plasmid were used for each sample.
(§4) Step-by-step fluorescence protein activation assay protocol. Reagents: • 1. PEI Max (Polysciences no. 24765-1) • 2. DMEM, high glucose, GlutaMAX™ Supplement, pyruvate (Thermo Fisher Scientific no. 10569044) • 3. Penicillin-Streptomycin (10,000 U/mL) (Thermo Fisher Scientific no. 15140122) • 4. Fetal Bovine Serum 500ML (FBS) (Thermo Fisher Scientific no. 10437028) • 5. TrypLE™ Express Enzyme (1×), phenol red (Thermo Fisher Scientific no. 12605068) • 6. PBS pH=7.4 (Thermo Fisher Scientific no. 10010023) • 7. Sony sorting chip […] for MA900 (SONY no. LE-C3210) • 8. Automatic Setup Beads kit (SONY no. LE-B3001) • 9. […]

[3] = test system: pUAS-1-driven EYFP expression in HEK293T cells transfected with GAL4- and VPR-fused PROTAC target protein / E3 ubiquitin ligase; assay: as above; type: cell-based, human; details: for Bottom (best-fit value) / Span (best-fit value) / Top (best-fit value): Table 4 nonlinear regression of EYFP activation; for Bottom (best-fit value) / Span (best-fit value) / Top (best-fit value) / Hillslope (best-fit value) / logEC50 (best-fit value) / EC50: FIG. 13A
Protocol: as §1, §2, §3, §4

[4] = test system: EYFP and BFP expression in HEK293T cells; assay: Dual PROTAC-based inducible gene cassettes (EYFP and BFP), microscopy; type: cell-based, human; details: GAL4-FKBP12^F36V + VHL-VPR driving EYFP; TetR-BRD9BD + CRBN-VPR driving BFP; 1 μM, FIG. 2B
Protocol: as §3
The inventors next tested the feasibility of dual PROTAC-based inducible gene cassettes (FIG. 15). In the first cassette, GAL4 was fused with FKBP12^F36V, and VHL was ligated with VPR to drive EYFP expression in response to dTAG^V-1. In the second cassette, TetR was fused with BRD9BD, and CRBN was connected with VPR to drive blue fluorescence protein (BFP) expression in the presence of dBRD9. […] As biological computation relies on the protein or DNA to execute Boolean logic gate operation in living organisms for cell discrimination and disease diagnosis (3, 11, 42), the inventors next explored the possibility of PROTAC-CID enabled logic gate biological computation. By placing EYFP under control of the TRE (Tetracycline response element) and pUAS-1 promoter, the inventors observed strong EYFP expression by using one or two PROTACs, achieving clear logic OR gate responses (FIGS. 2C and 16B). To develop a more sophisticated logic AND gate, the inventors took advantage of two orthogonal site-specific DNA recombinases (Cre and Dre) for biological computation (43). […] In this gene circuit, only in the presence of both dTAG-13 and dBRD9 inducers, Dre and Cre can be expressed to remove their respective “STOP” signals, resulting in the eventual GFP expression as a clear logic AND readout (FIGS. 2D and 16C).

[5] = test system: Cre-mediated GFP expression in HEK293T cells; assay: Inducible Cre site-specific DNA recombination, LoxP-STOP-LoxP-GFP reporter; type: cell-based, human; details: 100 nM dTAG-13 or 1 μM dBRD9, 2 days, FIGS. 3A and 17
Protocol: as §1
Transfection and microscopy. […]

wild-type FKBP12 = wild-type FKBP12 (Homo sapiens, UniProt P62942); details: refs (32, 36); cited from earlier work
wild-type FKBP12, sequence (P62942 whole entry, species assumed, the tested form may be a part): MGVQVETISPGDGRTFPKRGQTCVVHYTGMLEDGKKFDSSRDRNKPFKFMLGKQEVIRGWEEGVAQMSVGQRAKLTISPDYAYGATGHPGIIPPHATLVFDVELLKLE

GAL4-FKBP12 = GAL4-FKBP12 (UniProt P04386); assay: cell-based or functional assay
PYL-VPR = PYL-VPR (UniProt Q8VZS8); assay: cell-based or functional assay
PYL-VPR, sequence (Q8VZS8 33-209): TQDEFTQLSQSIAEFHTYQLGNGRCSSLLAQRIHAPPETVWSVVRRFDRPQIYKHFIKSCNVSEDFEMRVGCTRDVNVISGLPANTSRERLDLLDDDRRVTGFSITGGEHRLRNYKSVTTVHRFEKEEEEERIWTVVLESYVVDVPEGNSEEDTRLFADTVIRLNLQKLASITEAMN

TRIM24^BD-VPR (human) = assay: cell-based or functional assay
BRD4^BD2-VPR (human) = assay: cell-based or functional assay
[6] = Table 4 nonlinear regression, Prism 9 [Agonist] vs. response variable slope (four parameters), no unit in table (the source gives nM), read-out: EC50 (best-fit value)
[7] = dose-response, read-out: EC50 for gene activation

- EC50 [2, 6]: 6.32 nM
- EC50 [2, 7]: 6 nM
Molecule: CO[C@H]1C[C@@H]2CC[C@@H](C)[C@@](O)(O2)C(=O)C(=O)N2CCCC[C@H]2C(=O)O[C@H]([C@H](C)C[C@@H]2CC[C@@H](O)[C@H](OC)C2)CC(=O)[C@H](C)/C=C(\C)[C@@H](O)[C@@H](OC)C(=O)[C@H](C)C[C@H](C)/C=C/C=C/C=C/1C [Rapamycin]
- EC50 [1]: 1.8 nM
- Bottom (best-fit value) [3]: 6.692
- Span (best-fit value) [3]: 483.9
- Top (best-fit value) [3]: 490.6
- Hillslope (best-fit value) ([3]; Table 4 nonlinear regression): 1.871
- logEC50 (best-fit value) ([3]; Table 4 nonlinear regression): 0.8008
- rapamycin-based gene activation (EYFP) ([3]; using FRB and FKBP12, FIG. 1B): 355 fold

Molecule: COc1cc(-c2cn(C)c(=O)c3cnccc23)cc(OC)c1CN(C)CC(=O)NCCOCCOCCNc1cccc2c1C(=O)N(C1CCC(=O)NC1=O)C2=O (stereo not shown) [dBRD9]
- EYFP / BFP expression from dual inducible cassettes [4]: expression only in the presence of its corresponding inducer
- GFP signal, two-layer genetic circuit driving Cre [5]: strong GFP signal

Molecule: CC[C@H](C(=O)N1CCCC[C@H]1C(=O)O[C@H](CCc1ccc(OC)c(OC)c1)c1ccccc1OCC(=O)NCCCCCCC(=O)N[C@H](C(=O)N1C[C@H](O)C[C@H]1C(=O)N[C@@H](C)c1ccc(-c2scnc2C)cc1)C(C)(C)C)c1cc(OC)c(OC)c(OC)c1 [dTAG^V-1]
- Bottom (best-fit value) [3]: 0.9420
- Span (best-fit value) [3]: 55.73
- Top (best-fit value) [3]: 56.67
- Hillslope (best-fit value) ([3]; Table 4 nonlinear regression): 1.937
- logEC50 (best-fit value) ([3]; Table 4 nonlinear regression): 2.358
- EC50 [3, 6]: 228 nM
- EC50 [3, 7]: 228 nM
- EYFP / BFP expression from dual inducible cassettes [4]: expression only in the presence of its corresponding inducer
- degradation of wild-type FKBP12 (wild-type FKBP12): do not degrade wild-type FKBP12

Molecule: FRB-VPR (from UniProt P42345 2021-2113)
- EC50 of the inducer Rapamycin for EYFP gene activation (dose-response, FIG. 13A) (GAL4-FKBP12): 6.32 nM
- fold EYFP gene activation with rapamycin (GAL4-FKBP12): 355 fold

Molecule: GAL4-ABI (from UniProt P04386 1-147; P49597 126-423)
- EC50 of the inducer ABA for EYFP gene activation (dose-response, FIG. 13A) (PYL-VPR): 763 nM

Molecule: GAL4-VHL fusion protein
- EC50 of the inducer dTRIM24 for EYFP gene activation (dose-response, FIG. 13A) (TRIM24^BD-VPR (human)): 6350 nM
- EC50 of the inducer MZ1 for EYFP gene activation (dose-response, FIG. 13A) (BRD4^BD2-VPR (human)): 32.4 nM
